According to US20080287514A1, “Topical compositions containing metronidazole” (priority 2007, published 2008):

Columns and labels:
[1] = Physical stability test (crystal formation or precipitation after 24 hours at room temperature and 7 days at about 4 °C); type: physicochemical; conditions: for Results from stability test: aqueous solution, 7 days at about 4 °C
Protocol: The solubility enhancing effect of the combination of niacinamide and hydroxyalkyl urea in increasing the solubility of metronidazole in the aqueous compositions is evaluated by physical stability of the prepared compositions.
Therefore, the compositions in accordance with the present invention are subject to a physical stability test. The protocol for the stability test is as follows: metronidazole and the solubility enhancing agents are combined with water either at room temperature or elevated temperature while stirring until dissolved. The solutions are permitted to cool to room temperature. Customary auxiliaries and additives may be added to the aqueous solutions containing solubilized metronidazole and solubility enhancing agents. The solutions may be gelled by using the suitable gelling agents. The compositions both in gel or solution form are then packaged in clear glass vials and sealed. The vials are kept at room temperature for 24 hours and monitored for crystal formation or precipitation. After 24 hours, the vials are placed in a refrigerator maintained at a temperature of about 4° C. for 7 days. After 7 days, the vials are removed from the refrigerator. Evidence of crystal formation or precipitation in the compositions is examined.
(§1) Each formulation was prepared by combining niacinamide and metronidazole in water (q.s 100%). The mixture was kept at a temperature of about 45° C. while stirring until dissolved. The solutions were permitted to cool to room temperature, packaged and sealed in glass vials. The stability tests described in Example 1 were performed and the test results were recorded.
as §1, with “N-2-hydroxyethyl urea” for “niacinamide”, “(q.s.” for “(q.s”
as §1, with “N-2-hydroxyethyl urea, niacinamide,” for “niacinamide”, “(q.s.” for “(q.s”, “100%). N-2-hydroxyethyl urea is available from a number of commercial sources, for example, Aldrich Chemical Company (Milwaukee, Wis.).” for “100%).”, “kept either at room temperature or” for “kept”

[2] = at 25 °C; cited from earlier work

In the case of `Cc1ncc([N+](=O)[O-])n1CCO` [Metronidazole, 1-(2-hydroxyethyl)-2-methyl-5-nitroimidazole], the “Results from stability test” value ([1]; 1.0% metronidazole, 1.0% N-2-hydroxyethyl urea, 3.0% niacinamide) is reported as “Crystals”, the “Results from stability test” value ([1]; 1.0% metronidazole, 1.0% N-2-hydroxyethyl urea, 4.0% niacinamide) is reported as “Clear” and the “Results from stability test” value ([1]; 1.0% metronidazole, 2% niacinamide) is reported as “Crystals formed”. The “Results from stability test” value ([1]; 1.0% metronidazole, 3.0% N-2-hydroxyethyl urea, 3.0% niacinamide) was “Clear”, the “Results from stability test” value ([1]; 1.0% metronidazole, 3% niacinamide) was “Crystals formed” and the “Results from stability test” value ([1]; 1.0% metronidazole, 4.0% N-2-hydroxyethyl urea, 1.0% niacinamide) was “Crystals”. For the same compound, the “Results from stability test” value ([1]; 1.0% metronidazole, 4% niacinamide) was “Crystals formed”, the “Results from stability test” value ([1]; 1.0% metronidazole, 5.0% N-2-hydroxyethyl urea, 1.0% niacinamide) was “Clear” and the “Results from stability test” value ([1]; 1.0% metronidazole, 5.0% N-2-hydroxyethyl urea, 1.0% niacinamide, listed as metronidazole) was “stable”. For the same compound, the “Results from stability test” value ([1]; 1.0% metronidazole, 5.0% N-2-hydroxyethyl urea, 2.0% niacinamide) was “Clear”, the “Results from stability test” value ([1]; 1.0% metronidazole, 5% niacinamide) was “Clear” and the “Results from stability test” value ([1]; 1.0% metronidazole, 13% N-2-hydroxyethyl urea) was “Crystals formed”. The “Results from stability test” value ([1]; 1.0% metronidazole, 14% N-2-hydroxyethyl urea) was “Crystals formed”, the “Results from stability test” value ([1]; 1.0% metronidazole, 15% N-2-hydroxyethyl urea) was “Crystals formed” and the “Results from stability test” value ([1]; 1.0% metronidazole, 16% N-2-hydroxyethyl urea) was “Clear”. For the same compound, the “Results from stability test” value ([1]; 1.2% metronidazole, 10.0% N-2-hydroxyethyl urea, 2.0% niacinamide) was “Clear”.
In the case of `NC(=O)NCCO` [N-2-hydroxyethyl urea], the “concentration of N-2-hydroxyethyl urea required to obtain a stable aqueous solution of 1.0% metronidazole” value ([1]; N-2-hydroxyethyl urea as the only solubility enhancing agent) is reported as “about 16%” and the “concentration of N-2-hydroxyethyl urea needed to obtain a stable aqueous solution of 1.0% metronidazole” value ([1]; concentration of niacinamide is 1.0%) is reported as at least 5.0%.
In the case of `NC(=O)c1cccnc1` [niacinamide], the “concentration of niacinamide needed to obtain a stable aqueous solution of 1.0% metronidazole” value ([1]; concentration of N-2-hydroxyethyl urea is 1.0%) is reported as “about 4.0%”, the “N-2-hydroxyethyl urea functionally equivalent to 1% niacinamide in inducing the solubility enhancing effect” value ([1]; from Examples 2 and 3, 1.0% metronidazole) is reported as “about 3.2%” and the “concentration of niacinamide required to obtain a stable aqueous solution of 1.0% metronidazole” value ([1]; niacinamide as the only solubility enhancing agent) is reported as “about 5%”. The water solubility limit [2] was “about 50 % by weight”.
